Test results published in PMC8152814, “The modulatory role of sulfated and non-sulfated small molecule heparan sulfate-glycomimetics in endothelial dysfunction: absolute structural clarification, molecular docking and simulated dynamics, SAR analyses and ADMET studies” (RSC Medicinal Chemistry, 2021).

Key:
[1] = target: T1, hERG (Homo sapiens, UniProt Q12809); assay: hERG automated patch clamp (IonWorks, CHO-hERG cells); format: cell-based; details: CHO cells stably transfected with hERG, top concentration 25 µM
T1 construct: host or cells: CHO cells stably transfected with hERG
T1 sequence (Q12809 whole entry): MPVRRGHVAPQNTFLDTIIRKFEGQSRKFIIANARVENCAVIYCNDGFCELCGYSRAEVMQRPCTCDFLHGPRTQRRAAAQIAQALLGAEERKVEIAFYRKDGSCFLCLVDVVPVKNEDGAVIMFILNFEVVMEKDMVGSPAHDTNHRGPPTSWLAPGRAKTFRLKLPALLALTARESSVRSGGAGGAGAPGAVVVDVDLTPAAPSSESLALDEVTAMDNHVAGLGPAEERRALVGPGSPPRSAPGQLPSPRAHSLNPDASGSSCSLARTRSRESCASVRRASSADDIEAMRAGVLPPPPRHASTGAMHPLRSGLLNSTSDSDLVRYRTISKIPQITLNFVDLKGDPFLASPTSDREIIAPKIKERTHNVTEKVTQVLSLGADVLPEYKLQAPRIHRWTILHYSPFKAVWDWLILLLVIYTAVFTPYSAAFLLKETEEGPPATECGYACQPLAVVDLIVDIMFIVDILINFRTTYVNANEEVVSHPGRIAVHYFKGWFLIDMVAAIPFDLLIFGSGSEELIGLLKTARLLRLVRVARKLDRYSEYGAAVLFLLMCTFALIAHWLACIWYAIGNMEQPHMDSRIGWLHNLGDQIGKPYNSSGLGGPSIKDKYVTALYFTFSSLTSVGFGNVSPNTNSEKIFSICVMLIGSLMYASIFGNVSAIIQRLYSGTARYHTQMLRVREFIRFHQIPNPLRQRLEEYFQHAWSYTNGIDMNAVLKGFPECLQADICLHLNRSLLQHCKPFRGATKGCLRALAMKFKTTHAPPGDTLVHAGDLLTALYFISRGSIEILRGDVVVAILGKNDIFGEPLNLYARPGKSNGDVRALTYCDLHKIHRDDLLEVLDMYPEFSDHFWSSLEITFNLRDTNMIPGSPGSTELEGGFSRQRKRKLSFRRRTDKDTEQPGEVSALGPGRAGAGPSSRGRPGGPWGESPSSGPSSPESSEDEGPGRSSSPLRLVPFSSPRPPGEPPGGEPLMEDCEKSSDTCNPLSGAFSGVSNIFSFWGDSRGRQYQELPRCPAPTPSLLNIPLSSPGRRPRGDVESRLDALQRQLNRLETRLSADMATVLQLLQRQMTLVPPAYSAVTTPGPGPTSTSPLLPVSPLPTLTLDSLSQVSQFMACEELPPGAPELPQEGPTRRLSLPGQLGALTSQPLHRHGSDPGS
Method: Physicochemical and ADMET properties of representative glycomimetics. […] The final incubation volume is 50 µL. […] Two control compounds are included with each species. All incubations are performed singularly for each test compound. […] The control (minus NADPH) is incubated for 45 min. […] The cells are then positioned over a small hole at the bottom of each well by applying a vacuum beneath the plate to form an electrical seal. The vacuum is applied through a single compartment common to all wells which is filled with intracellular solution (buffered to pH 7.2 with HEPES). The resistance of each seal is measured via a common ground-electrode in the intracellular compartment and individual electrodes placed into each of the upper wells. Electrical access to the cell is then achieved by circulating a perforating agent, amphotericin B, underneath the PatchPlateTM. The pre-compound hERG current is then measured. An electrode is positioned in the extracellular compartment and a holding potential of -80 mV applied for 15 s. The hERG channels are then activated by applying a depolarising step to +40 mV for 5 s and then clamped at -50 mV for 4 s to elicit the hERG tail current, before returning to -80 mV for 0.3 s. […]

[2] = Caco-2 permeability (bi-directional); format: in vitro ADME; details: human, Caco-2; A2B, 10 µM, 120 min
Method: (§1) Physicochemical and ADMET properties of representative glycomimetics. […]
(§2) ymax = mean vehicle control response
(§3) Caco-2 Permeability (A-B or Bi-directional)
(§4) Caco-2 cells (ATCC, Virginia, USA) are used between passage numbers 40-60. Cells are seeded onto Millipore Multiscreen Transwell plates at 1 x 10^5 cells/cm2. The cells are cultured in DMEM and media is changed every two or three days. On day 20 the permeability study is performed. Cell culture and assay incubations are carried out at 37 °C in an atmosphere of 5 % CO2 with a relative humidity of 95%. On the day of the assay, the monolayers are prepared by rinsing both apical and basolateral surfaces twice with Hanks Balanced Salt Solution (HBSS) at the desired pH warmed to 37 °C. Cells are then incubated with HBSS at the desired pH in both apical and basolateral compartments for 40 min to stabilise physiological […]
(§5) The dosing solutions are prepared by diluting test compound with assay buffer to give a final test compound concentration of 10 µM (final DMSO concentration of 1 % v/v). The fluorescent integrity marker lucifer yellow is also included in the dosing solution. Analytical standards are prepared from test compound DMSO dilutions and transferred to buffer, maintaining a 1% v/v DMSO concentration. Typical assay buffer is composed of supplemented HBSS pH 7.4 but a range of other buffers and pH values can be used.
(§6) For assessment of A-B permeability, HBSS is removed from the apical compartment and replaced with test compound dosing solution. The apical compartment insert is then placed into a companion plate containing fresh buffer (containing 1 % v/v DMSO). For assessment of B-A permeability, HBSS is removed from the companion plate and replaced with test compound dosing solution. Fresh buffer (containing 1 % v/v DMSO) is added to the apical compartment insert, which is then placed into the companion plate.
(§7) At 120 min the apical compartment inserts and the companion plates are separated and apical and basolateral samples diluted for analysis. Test compound permeability is assessed in duplicate. Compounds of known permeability characteristics are run as controls on each assay plate. Test and control compounds are quantified by LC-MS/MS cassette analysis using an 8-point calibration with appropriate dilution of the samples. The starting concentration (C0) is determined from the dosing solution and the experimental recovery calculated from C0 and both apical and basolateral compartment concentrations.
(§8) The integrity of the monolayer throughout the experiment is checked by monitoring lucifer yellow permeation using fluorimetric analysis. Lucifer yellow permeation is high if monolayers have been damaged. If a lucifer yellow Papp value is above a pre-defined threshold in one individual test compound well, the compound may be re-tested or an n = 1 result is reported.
(§9) If lucifer yellow Papp values are above the threshold in both replicate wells for a test compound, the compound is re-tested. If this re-occurs upon repeat in both wells then toxicity or inherent fluorescence of the test compound is assumed.
(§10) The permeability coefficient (Papp) for each compound is calculated from the following […]
(§11) Where dQ/dt is the rate of permeation of the drug across the cells, C0 is the donor compartment concentration at time zero and A is the area of the cell monolayer. C0 is obtained from analysis […]
(§12) For bi-directional experiments, an efflux ratio (ER) is calculated from mean A-B and B-A data.
(§13) Three control compounds are screened alongside the test compounds, atenolol (human absorption 50%), propranolol (human absorption 90%) and talinolol (a substrate for […]

[3] = tested on: Caco-2 cells; assay: Caco-2 permeability (bi-directional); format: in vitro ADME
Method: as §1, §2, §3, §4, §5, §6, §7, §8, §9, §10, §11, §12, §13

Row | Caco-2 (A2B Papp) ([3]; A2B, 10 µM, 120 min) | Compound | IC50 at 300 s ([1]; human, pH 7.2) | Papp A→B at 2 h, 10 µM [2] | Caco-2 cell permeability levels [3] | Caco-2 (B2A Papp) ([3]; 10 µM, 120 min) | IC50 [1]
1 | – | COC(=O)c1cc(OC[C@H](COS(=O)(=O)[O-])OS(=O)(=O)[O-])ccc1OCCCCOS(=O)(=O)[O-].[Na+].[Na+].[Na+] [Compound R-10, sodium (R)-3-(3-(methoxycarbonyl)-4-(4-(sulfonatooxy)butoxy)phenoxy)propane-1,2-diyl bis(sulfate)] | > 25 µM | 0.931 ×10⁻⁶ cm/s | low or not detected | Not detected | –
2 | Not detected | O=C([O-])c1cc(OC[C@H](COS(=O)(=O)[O-])OS(=O)(=O)[O-])ccc1OCC(COS(=O)(=O)[O-])OS(=O)(=O)[O-].[Na+].[Na+].[Na+].[Na+].[Na+] (mixture of isomers) [β-5, sodium 5-((R)-2,3-bis(sulfonatooxy)propoxy)-2-(2,3-bis(sulfonatooxy)propoxy)benzoate] | – | – | low or not detected | Not detected | > 25 µM
